Values of other authors as cited in patent US20240350409A1, “TRANSDERMAL DELIVERY FORMULATIONS AND METHODS FOR THE MANUFACTURE THEREOF” (LifeActive, Inc., priority 2023, published 2024).

Details: in H2O at ~15-20° C.; weak organic acids

Substance | pKa3 | pKa2
Citric Acid | 6.40 | –
Maleic Acid | – | 6.07
